According to patent US6538008B1, “Combination of a selective NMDA NR2B antagonist and an opioid analgesic” (Merck Sharpe & Dohme Limited, priority 1998, dated 2003):
Where “and” joins values, the source holds several entries; their conditions need not be identical. Equal values may be shown once.

What was measured:
[1] = system: mechanical allodynia induced by sciatic nerve ligation; experiment: Sciatic nerve ligation assay of neuropathic pain (mechanical allodynia, modified Randall-Selitto algesiometer); type: in vivo, rat; conditions: for effect on mechanical allodynia induced by sciatic nerve ligation: in words, Example 5; for ID50 Antinociception Rat Ligation: reversal of mechanical allodynia 7 days after ligation, compound given 1 h before test, route given per compound
[2] = system: mechanical hyperalgesia induced by carrageenan; experiment: Carrageenan-induced mechanical hyperalgesia assay (modified Ugo Basile Algesiometer); type: in vivo, rat; conditions: for ID50 Antinociception Rat Carrageenan: inhibition of mechanical hyperalgesia 3 h after carrageenan 4.5 mg i.pl., compound given 2 h after carrageenan, route given per compound
Procedure: (§1) Anti-algesic activity was assessed using an assay of neuropathic pain in rats (sciatic nerve ligation) and in a carrageenan-induced hyperalgesia assay. Motor impairment was measured using an accelerating rotarod.
(§2) For sciatic nerve ligation, male Sprague Dawley rats (180-220 g) were anaesthetised with isofluorane, the left sciatic nerve exposed and 4 chromic catgut (4.0) ligatures were tied loosely around the nerve (spaced 1-2 mm apart) immediately proximal to the point of trifurcation. In sham-operated animals, the same dissection was performed but without ligation. Responses to mechanical pressure were assessed 7 days after ligation using a modified Randall-Selitto algesiometer in which constant force of 40 mmHg was applied to the hind paw and the latency to struggle was recorded as the reaction time. Mechanical allodynia was defined as the difference in reaction time for sham and ligature rats. Reaction times for drug treated rats were expressed as a percentage of this response. Compounds were administered 1 h before the test. In the carrageenan-induced hyperalgesia assay, male Sprague Dawley rats (100-120 g) received an intraplantar injection of carrageenan (4.5 mg) and mechanical thresholds were determined 3 h later using a modified Ugo Basile Algesiometer. Control rats received saline (0.15 ml i.pl.). Hyperalgesia was defined as the difference in vocalisation threshold for saline- and carrageenan-injected rats. Paw pressure scores for drug-treated rats were expressed as a percentage of this response. Compounds were administered 2 h after carrageenan. To determine the effects of the compounds on motor co-ordination, male Sprague Dawley rats (160-180 g) were first trained to remain for 120 s on the rotarod apparatus revolving at 12 r.p.m. on the morning before the test. […] Lamotrigine, gabapentin and (±)-CP-101,606 were suspended in 0.5% methocel and administered orally (1 ml/kg). Ifenprodil, L-701.324, L-687,414 and (±)-Ro25-6981 were dissolved or suspended in 0.5% methocel and administered intraperitoneally (1 ml/kg). MK-801 was dissolved in distilled water and given i.p. (1 ml/kg). Doses of compounds refer to the free base.
(§3) Male Sprague Dawley rats (100-120 g) received an intraplantar injection of carrageenan (4.5 mg) and mechanical thresholds were determined 3 h later using a modified Ugo Basile Algesiometer. Control rats received saline (0.15 ml i.pl.). Hyperalgesia was defined as the difference in vocalisation threshold for saline- and carrageenan-injected rats. Paw pressure scores for drug-treated rats were expressed as a percentage of this response. Compounds were administered 2 h after carrageenan. To determine the effects of morphine and (±)-Ro25-6981 on motor co-ordination, male Sprague Dawley rats (160-180 g) were first trained to remain for 120 s on the rotarod apparatus revolving at 12 r.p.m. on the morning before the test.
(§4) (±)-Ro25-6981 was suspended in 0.5% methocel and administered intraperitoneally (1 ml/kg). Morphine HCl was dissolved in saline and given subcutaneously (1 ml/kg). Doses of compounds refer to the free base.

[3] = system: rotarod performance (motor co-ordination); experiment: Motor co-ordination and behaviour, accelerating rotarod; conditions: for ID50 Motor Impairment Rat Rotarod: accelerating rotarod 1 h after drug, route given per compound
Procedure: as §1, §2, §3, §4

[4] = system: rat hyperalgesic and nociceptive tests; conditions: at doses showing no behavioural abnormality; cited from earlier work

For `C[C@]12N[C@H](Cc3ccccc31)c1ccccc12` [MK-801], the “effect on mechanical allodynia induced by sciatic nerve ligation” value (“effect on mechanical allodynia induced” below) [1] was “dose-dependently reversed mechanical allodynia”, the “ID50 Antinociception Rat Ligation” value [1] was 0.19 mg/kg and the “ID50 Antinociception Rat Carrageenan” value [2] was 0.21 mg/kg. The behavioural effects observed ([3]; 0.3 and 1 mg/kg doses) was “Body rolling. and head weaving” and the “ID50 Motor Impairment Rat Rotarod” value [3] was 0.22 mg/kg.
For `O=c1[nH]c2cc(Cl)ccc2c(O)c1-c1cccc(Oc2ccccc2)c1` [L-701,324], the “effect on mechanical allodynia induced” value [1] was “dose-dependently reversed mechanical allodynia”, the “ID50 Antinociception Rat Ligation” value [1] was 2.6 mg/kg and the “ID50 Antinociception Rat Carrageenan” value [2] was 2.5 mg/kg. The behavioural effects observed ([3]; 10 and 30 mg/kg i.p.) was “ataxia was evident” and the “ID50 Motor Impairment Rat Rotarod” value [3] was 1.9 mg/kg.
With `CC(C(O)c1ccc(O)cc1)N1CCC(Cc2ccccc2)CC1` (centres unmarked) [Ifenprodil, ifenprodil] the “effect on mechanical allodynia induced” value [1] was “reversed mechanical allodynia”, the “ID50 Antinociception Rat Ligation” value [1] was 9.5 mg/kg and the “ID50 Antinociception Rat Carrageenan” value [2] was 17 mg/kg. For the same molecule, the “adverse effects observed (ptosis, piloerection, hypoactivity, hyperventilation)” value ([3]; 50 mg/kg) was “severe adverse effects”, the “impairment in rotarod performance” value ([3]; 50 mg/kg) was “approximately 50%” and the “ID50 Motor Impairment Rat Rotarod” value [3] was “≧50 mg/kg”.
For `CN1CC[C@]23c4c5ccc(O)c4O[C@H]2[C@@H](O)C=C[C@H]3[C@H]1C5` [morphine], the “effect on mechanical hyperalgesia induced by carrageenan” value (shortened to “effect … by carrageenan”) ([2]; 1 mg/kg s.c., alone (FIG. 2)) was “completely reversed mechanical hyperalgesia”, the “effect … by carrageenan” value ([2]; 0.1 and 0.3 mg/kg s.c., alone (FIG. 2)) was “without effect” and the “percent inhibition of hyperalgesia” value ([2]; morphine 0.1 mg/kg s.c. alone) was 11%. For the same molecule, the “percent inhibition of hyperalgesia” value ([2]; morphine 0.3 mg/kg s.c. alone) was 31%, the “effect on rotarod performance” value ([3]; 3 mg/kg s.c. alone (FIG. 3)) was “significant impairment” and the “effect on rotarod performance” value ([3]; 0.3 and 1 mg/kg s.c. alone (FIG. 3)) was “no effect”.
With `C[C@@H](CN1CCC(Cc2ccccc2)CC1)[C@@H](O)c1ccc(O)cc1` (racemic) [(±)-Ro25-6981] the “effect on mechanical allodynia induced” value [1] was “dose-dependently reversed mechanical allodynia”, the “ID50 Antinociception Rat Ligation” value [1] was 3.8 mg/kg and the “antinociception in carrageenan-induced hyperalgesia” value ([2]; 1 mg/kg i.p., alone) was “did not cause significant antinociception”. The “effect … by carrageenan” value ([2]; 10 and 30 mg/kg i.p., alone (FIG. 1)) was “dose-dependent reversal of mechanical hyperalgesia”, the “ID50 Antinociception Rat Carrageenan” value [2] was 5.7 mg/kg and the “effect on rotarod performance” value ([3]; 1 mg/kg i.p. alone (FIG. 3)) was “no effect”. The “inhibition of rotarod performance” value ([3]; 100 mg/kg i.p.) was 47% and the “ID50 Motor Impairment Rat Rotarod” value [3] was “≧100 mg/kg”.
In the case of `Nc1nnc(-c2cccc(Cl)c2Cl)c(N)n1` [Lamotrigine, lamotrigine], the “effect on mechanical allodynia induced” value [1] is reported as “reversed mechanical allodynia”, the “ID50 Antinociception Rat Ligation” value [1] is reported as 11 mg/kg and the “ID50 Antinociception Rat Carrageenan” value [2] is reported as 207 mg/kg. For the same molecule, the “inhibition in the time spent on the rotarod” value ([3]; 500 mg/kg p.o.) was 40%, the “other effects observed besides rotarod inhibition” value ([3]; 500 mg/kg p.o.) was “no other effects were observed” and the “ID50 Motor Impairment Rat Rotarod” value [3] was greater than 500 mg/kg.
With `C[C@@H]1CN(O)C(=O)[C@@H]1N` [L-687,414] the “effect on mechanical allodynia induced” value [1] was “dose-dependently reversed mechanical allodynia”, the “ID50 Antinociception Rat Ligation” value [1] was 9.8 mg/kg and the “ID50 Antinociception Rat Carrageenan” value [2] was 50 mg/kg. For the same molecule, the behavioural effects observed ([3]; 100 and 300 mg/kg i.p.) was “body rolling and ataxia” and the “ID50 Motor Impairment Rat Rotarod” value [3] was 53.3 mg/kg and 53 mg/kg.
In the case of `NCC1(CC(=O)O)CCCCC1` [Gabapentin, gabapentin], the “effect on mechanical allodynia induced” value [1] is reported as “reversed mechanical allodynia”, the “ID50 Antinociception Rat Ligation” value [1] is reported as 87 mg/kg and the “ID50 Antinociception Rat Carrageenan” value [2] is reported as 50 mg/kg. The “ID50 Motor Impairment Rat Rotarod” value [3] was 133 mg/kg and the behavioural effects observed ([3]; doses of 30-300 mg/kg) was “motor impairments (ataxia)”.
For `C[C@@H]([C@@H](O)c1ccc(O)cc1)N1CCC(O)(c2ccccc2)CC1` [CP-101,606], the analgesic activity [4] is given as “Potent analgesic activity”.
With (±)-CP-101,606 the “effect on mechanical allodynia induced” value [1] was “dose-dependently reversed mechanical allodynia”, the “ID50 Antinociception Rat Ligation” value [1] was 6.1 mg/kg and the “ID50 Antinociception Rat Carrageenan” value [2] was 37 mg/kg. The “rotarod latency compared to vehicle-treated rats” value ([3]; 300 mg/kg dose) was “significant increase in latency”, the “ID50 Motor Impairment Rat Rotarod” value [3] was greater than 300 mg/kg and the “effect on motor performance on the rotarod” value ([3]; up to 300 mg/kg p.o.) was “did not inhibit motor performance”.
